1 compound from patent US20230279433A1, “METHODS AND COMPOSITIONS FOR THE PRODUCTION OF ADENO-ASSOCIATED VIRUS” (priority 2021, published 2023) can be followed below.

The structures appear in SMILES notation.

Holding throughout (type): cell-based
The test system of experiment [1] is AAV producer cells (HEK293 cells). As to the kind of experiment: AAV productivity with culture media additives supplemented two hours post-transfection (shake flasks). As for the experimental part: For each parameter tested, HEK293 cells were expanded by shake flask culture with a target seed density of >0.25E6 viable cells/mL and a target final density of <6E6 viable cells/mL. […]
(§1) Cell transfection was performed generally as described in Grieger et al. (2016) Molecular Therapy 24(2): 287-297. Briefly, transfection mixes were prepared by mixing calculated volumes of vector(s), transfection media, and polyethylenimine (PEI), all at ambient temperature, and allowed to equilibrate before the transfection mixes were added to the cells. Post-transfection bioreactor setpoint shifts were performed 2 hours post-transfection, and cells were harvested 72 hours post-transfection. […] Productivity was measured by vector genome titer and capsid yield. Vector genome (VG) titer was determined by droplet digital PCR (ddPCR) by standard methods using primer/probe sets specific to the transgene payload of the vector comprising the transgene. Capsid yield was determined using enzyme-linked immunosorbent assays (ELISAs) by standard methods with an immobilized antibody directed against an epitope of the capsid as encoded by the vector comprising the capsid sequences. Percentage of intact vector genomes (% Full capsids) was calculated by dividing the vector genome productivity determined by ddPCR by the number of capsids determined by ELISA. […]

For experiment [2] the test system is unchanged. The experiment is described as follows: DMSO time course analysis of AAV productivity. The following applies: 1.5% (v/v) DMSO added two hours pre-transfection and up to 30 minutes post-transfection; compared to the other time points tested. As for the experimental part: For each parameter tested, HEK293 cells were expanded by shake flask culture with a target seed density of >0.25E6 viable cells/mL and a target final density of <6E6 viable cells/mL. Expanded cells were inoculated into an Applikon 3 L Glass Bioreactor containing the appropriate amount of cell culture medium prior to transfection at a 2 L working volume.
as §1, with “cells.” for “cells. Post-transfection bioreactor setpoint shifts were performed 2 hours post-transfection, and cells were harvested 72 hours post-transfection.”

Experiment [3] concerns second HEK293 cell line. The experiment is described as follows: AAV productivity with DMSO supplementation 30-120 minutes post-transfection, 3 L single-use bioreactors. The following applies: DMSO 120 minutes vs 30 minutes post-transfection, pH 7.0, 39° C. Here is the method: (§2) Cell transfection was performed generally as described in Grieger et al. (2016) Molecular Therapy 24(2): 287-297. Briefly, transfection mixes were prepared by mixing calculated volumes of vector(s), transfection media, and polyethylenimine (PEI), all at ambient temperature, and allowed to equilibrate before the transfection mixes were added to the cells. Post-transfection bioreactor setpoint shifts were performed 2 hours post-transfection, and cells were harvested 72 hours post-transfection. Harvested cells were lysed as described in Grieger et al. (2016) Molecular Therapy 24(2): 287-297. Crude lysate samples were collected following centrifugation to remove cellular debris. Productivity was measured by vector genome titer and capsid yield. Vector genome (VG) titer was determined by droplet digital PCR (ddPCR) by standard methods using primer/probe sets specific to the transgene payload of the vector comprising the transgene. Capsid yield was determined using enzyme-linked immunosorbent assays (ELISAs) by standard methods with an immobilized antibody directed against an epitope of the capsid as encoded by the vector comprising the capsid sequences. Percentage of intact vector genomes (% Full capsids) was calculated by dividing the vector genome productivity determined by ddPCR by the number of capsids determined by ELISA.
Based on the findings above, the effects of post-transfection pH, and the effect of supplementing the culture media with DMSO at 30-120 minutes post-transfection were further tested using a different representative AAV particle. Experiments were performed with a second HEK293 cell line according to the methods described in Examples 1 and 5 using 3 L single-use bioreactors.
AAV productivity, in terms of vector genome (VG) titer (FIG. 8A), capsid yield (FIG. 8B), and percent intact vector genomes (% Full; FIG. 8C), was measured as described in Example 1.

Experiment [4] relates to second HEK293 cell line. As to the kind of experiment: AAV productivity at different DMSO concentrations, shake flasks. Here is the method: as §2
The conditions of DMSO supplementation were further tested using different representative AAV particles. Experiments were performed with a second HEK293 cell line according to the methods described in Example 1 using shake flasks.
AAV productivity, in terms of vector genome (VG) titer (FIGS. 9A and 10A), capsid yield (FIGS. 9B and 10B), and percent intact vector genomes (% Full; FIGS. 9C and 10C), was measured as described in Example 1.

Take `C[S+](C)[O-]` [DMSO, dimethyl sulfoxide]: the percent full capsids entry is reported as “higher percent full capsids” in experiment [1] (DMSO added two hours post-transfection, compared to the other additives); “increased” in experiment [4] (FIG. 9C, 0.5% to 2.25% DMSO two hours post-transfection); “comparable” in experiment [4] (FIG. 10C, 0.75% DMSO two hours post-transfection compared with 0% DMSO); “increased” in experiment [4] (FIG. 10C, 1.5% DMSO two hours post-transfection compared with 0.75% DMSO). In addition, the VG titer result in experiment [1] (additive added two hours post-transfection, all tested concentrations (Table 5), over control conditions without additive, ddPCR, crude lysate) is on record as “general increase”; in experiment [4] (FIG. 9A, 0.5% to 2.25% DMSO two hours post-transfection, up to a DMSO concentration of 1.5%), “increased”; in experiment [4] (FIG. 10A, 0.75% DMSO two hours post-transfection compared with 0% DMSO), “increased”; in experiment [4] (FIG. 10A, 1.5% DMSO two hours post-transfection compared with 0.75% DMSO) it was “comparable”. Besides, in experiment [2], the “percent yield of full capsids” value is recorded as “higher percent yield of full capsids”. Further, in experiment [3], the VG titers entry is “similar”. For the same compound, in experiment [3], the capsid yields entry is given as “similar”. Also, in experiment [3], the intact vector genomes result was “similar”. Also, the capsid titer entry in experiment [4] (FIG. 9B, 0.5% to 2.25% DMSO two hours post-transfection, up to a DMSO concentration of 1.5%) is recorded as “increased or comparable”; in experiment [4] (FIG. 10B, 0.75% DMSO two hours post-transfection compared with 0% DMSO) it was “increased”; in experiment [4] (FIG. 10B, 1.5% DMSO two hours post-transfection compared with 0.75% DMSO) it was “decreased”.
